Test results as given in publication PMC11943435, “Functional Investigation of the Receptor to the Major Pheromone Component in the C-Strain and the R-Strain of the Fall Armyworm Spodoptera frugiperda” (Insects, 2025).

Molecular target: T1, C-SfruOR13 (SfruOR13 from the C-strain) (Spodoptera frugiperda, UniProt A0A9R0CXR4)
T1 construct: gene LOC118264496; full-length ORF (435 residues), synthesized, pUAST.attB; expressed in Drosophila at1 trichoid OSNs (Or67d-GAL4) replacing OR67d; Orco is that of the fly host; with Odorant receptor coreceptor (endogenous, Drosophila melanogaster)
T1 sequence (A0A9R0CXR4 1-435): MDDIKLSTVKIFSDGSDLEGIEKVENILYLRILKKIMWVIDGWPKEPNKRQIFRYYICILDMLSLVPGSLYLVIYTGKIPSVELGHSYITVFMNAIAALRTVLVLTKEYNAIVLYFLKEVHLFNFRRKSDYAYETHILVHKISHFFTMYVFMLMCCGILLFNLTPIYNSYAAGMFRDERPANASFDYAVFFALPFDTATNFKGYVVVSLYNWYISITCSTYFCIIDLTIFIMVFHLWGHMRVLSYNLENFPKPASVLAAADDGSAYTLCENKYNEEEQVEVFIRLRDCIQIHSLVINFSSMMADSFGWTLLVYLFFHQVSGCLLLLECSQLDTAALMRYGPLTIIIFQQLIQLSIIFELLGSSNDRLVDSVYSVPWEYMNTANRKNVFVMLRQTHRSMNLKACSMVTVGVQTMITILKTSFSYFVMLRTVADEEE
T1 sequence (Q9VNB5 1-486 partner): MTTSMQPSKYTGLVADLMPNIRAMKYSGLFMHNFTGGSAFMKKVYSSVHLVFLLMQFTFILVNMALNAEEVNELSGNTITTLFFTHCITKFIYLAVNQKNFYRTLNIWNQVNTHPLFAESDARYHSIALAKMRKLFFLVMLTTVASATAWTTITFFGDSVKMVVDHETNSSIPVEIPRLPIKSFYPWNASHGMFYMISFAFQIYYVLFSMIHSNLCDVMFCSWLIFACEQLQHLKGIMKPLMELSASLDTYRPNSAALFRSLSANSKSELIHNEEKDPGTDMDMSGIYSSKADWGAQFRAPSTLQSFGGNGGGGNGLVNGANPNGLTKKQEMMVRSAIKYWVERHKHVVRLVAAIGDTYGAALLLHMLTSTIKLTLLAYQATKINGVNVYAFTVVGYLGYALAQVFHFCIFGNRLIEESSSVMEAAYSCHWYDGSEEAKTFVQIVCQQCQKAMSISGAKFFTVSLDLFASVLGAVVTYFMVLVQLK
Experiment: single-sensillum recording, Drosophila at1 OSNs, dose-response
Type: cell-based
Conditions: agonist; vapour stimulus, 10 ng to 10 µg loaded on filter paper in hexane

For `CCCC/C=C\CCCCCCCCOC(C)=O` [(Z)-9-14:OAc, (Z)-9-tetradecenyl acetate], the “single-sensillum recording, Drosophila at1 OSNs, dose-response” value was “C-SfruOR13 was significantly activated by the same three compounds that elicited a response in R-SfruOR13”.
